Reference: patent US8722849B2, “Polypeptides” (Novo Nordisk A/S, priority 2011, dated 2014)
≈ marks a conversion by molar mass, not a printed value. Read-outs that look alike come from different tables or passages of the source. Starred links: 1 amine or outer side, 2 acyl side, 3 side chain; linkers in the order of their positions; H or OH if unused. Positions of bridges follow the written chain, without caps; N, C: chain ends. Residues, ends and D or L forms follow the SMILES beside them. Groups on a side chain read outwards from the residue. *: point of attachment. C20 diacid = O=C(O)CCCCCCCCCCCCCCCCCCC(=O)*; γGlu = O=C(O)[C@H](CCC(=O)[*:2])N[*:1]; AEEA = NCCOCCOCC(=O)O

Test: Assay (IV) determination of solubility
Format: physicochemical
Method: ASSAY (IV)—Determination of Solubility
The polypeptide was dissolved in water at ˜500 nmol/ml and mixed 1:1 with a series of buffers (100 mM glycylglycine pH 3.0, 100 mM glycylglycine pH 4.0, 100 mM glycylglycine pH 5.0, 100 mM bistrispropane pH 6.0, 100 mM bistrispropane pH 6.5, 100 mM bistrispropane pH 7.0, 100 mM bistrispropane pH 7.5, 100 mM bistrispropane pH 8.0). After 18 hours at room temperature the samples were centrifuged and the polypeptide concentration determined by HPLC.

[1] = pH 3, pH 3.0, read-out: Solubility pH 3.0
[2] = pH 4, pH 4.0, 18 hours at room temperature, Table 2, read-out: Solubility pH 4.0
[3] = pH 4, pH 4.0, read-out: Solubility pH 4.0
[4] = pH 5, pH 5.0, read-out: Solubility pH 5.0
[5] = pH 6, pH 6.0, read-out: Solubility pH 6.0
[6] = pH 6.5, pH 6.5, read-out: Solubility pH 6.5
[7] = pH 7, pH 7.0, 18 hours at room temperature, Table 3, read-out: Solubility pH 7.0
[8] = pH 7, pH 7.0, read-out: Solubility pH 7.0
[9] = pH 7.5, pH 7.5, read-out: Solubility pH 7.5
[10] = pH 8, pH 8.0, read-out: Solubility pH 8.0

Row | Compound | solubility [1] | solubility [2] | solubility [3] | solubility [4] | solubility [5] | solubility [6] | solubility [7] | solubility (pH 7, pH 7.0, Table 8, read-out: Solubility pH 7.0) | solubility (pH 7, pH 7.0, Table 9, read-out: Solubility pH 7.0) | solubility [8] | solubility (pH 7.5, pH 7.5, Table 9, read-out: Solubility pH 7.5) | solubility [9] | solubility [10]
1 | CC[C@H](C)[C@H](NC(=O)[C@@H]1CCCN1C(=O)CNC(=O)[C@H](Cc1ccccc1)NC(=O)[C@H](CC(N)=O)NC(=O)[C@H](CCCCNC(=O)COCCOCCNC(=O)COCCOCCNC(=O)CC[C@H](NC(=O)CCCCCCCCCCCCCCCCCCC(=O)O)C(=O)O)NC(=O)[C@H](CO)NC(=O)[C@H](CO)NC(=O)[C@H](CCCNC(=N)N)NC(=O)[C@@H](NC(=O)[C@H](CC(C)C)NC(=O)[C@H](Cc1ccccc1)NC(=O)[C@H](CCC(=O)O)NC(=O)[C@H](C)NC(=O)[C@H](CC(C)C)NC(=O)[C@H](CCCNC(=N)N)NC(=O)[C@H](CCC(N)=O)NC(=O)[C@@H](NC(=O)[C@H](C)NC(=O)[C@@H]1CSSC[C@H](NC(=O)[C@@H](N)CCCCN)C(=O)N[C@@H](CC(N)=O)C(=O)N[C@@H]([C@@H](C)O)C(=O)N[C@@H](C)C(=O)N[C@@H]([C@@H](C)O)C(=O)N1)[C@@H](C)O)C(C)C)C(=O)N[C@@H](CC(C)C)C(=O)N[C@@H](CO)C(=O)N[C@@H](CCCNC(=N)N)C(=O)N[C@H](C(=O)N[C@@H](CC(N)=O)C(=O)N[C@H](C(=O)NCC(=O)N[C@@H](CO)C(=O)N[C@@H](CCCNC(=N)N)C(=O)N[C@H](C(=O)N[C@@H](Cc1ccc(O)cc1)C(N)=O)[C@@H](C)O)C(C)C)[C@@H](C)O [Example 150, N-epsilon21-[2-(2-{2-[2-(2-{2-[(S)-4-Carboxy-4-(19-carboxyheptadecanoylamino)butyrylamino]ethoxy}ethoxy)acetylamino]ethoxy}ethoxy)acetyl]-[Glu14,Arg18,Lys21,Ser28,Arg29,Arg35]-pramlintide] (H-KCNTATCATQRLAEFLVRSSK([AEEA-AEEA-γGlu-C20 diacid])NFGPILSRTNVGSRTY-NH2; disulfide 2-7) | > 200 µM | > 200 µM | > 200 µM | > 200 µM | > 200 µM | 163 µM (≈ 788 µg/mL) | > 200 µM | > 200 µM | > 200 µM | > 200 µM | > 200 µM | > 200 µM | > 200 µM
2 | CC[C@H](C)[C@H](NC(=O)[C@@H]1CCCN1C(=O)CNC(=O)[C@H](Cc1ccccc1)NC(=O)[C@H](CC(N)=O)NC(=O)[C@H](CCCCNC(=O)COCCOCCNC(=O)COCCOCCNC(=O)CC[C@H](NC(=O)CCCCCCCCCCCCCCCCCCC(=O)O)C(=O)O)NC(=O)[C@H](CO)NC(=O)[C@H](CO)NC(=O)[C@H](Cc1c[nH]cn1)NC(=O)[C@H](Cc1c[nH]cn1)NC(=O)[C@H](CC(C)C)NC(=O)[C@H](Cc1ccccc1)NC(=O)[C@H](CCC(=O)O)NC(=O)[C@H](C)NC(=O)[C@H](CC(C)C)NC(=O)[C@H](CCCNC(=N)N)NC(=O)[C@H](CCC(N)=O)NC(=O)[C@@H](NC(=O)[C@H](C)NC(=O)[C@@H]1CSSC[C@H](NC(=O)[C@@H](N)CCCCN)C(=O)N[C@@H](CC(N)=O)C(=O)N[C@@H]([C@@H](C)O)C(=O)N[C@@H](C)C(=O)N[C@@H]([C@@H](C)O)C(=O)N1)[C@@H](C)O)C(=O)N[C@@H](CC(C)C)C(=O)N[C@@H](CO)C(=O)N[C@@H](CO)C(=O)N[C@H](C(=O)N[C@@H](CC(N)=O)C(=O)N[C@H](C(=O)NCC(=O)N[C@@H](CO)C(=O)N[C@@H](Cc1c[nH]cn1)C(=O)N[C@H](C(=O)N[C@@H](Cc1ccc(O)cc1)C(N)=O)[C@@H](C)O)C(C)C)[C@@H](C)O [Example 148, N-epsilon21-[2-(2-{2-[2-(2-{2-[(S)-4-Carboxy-4-(19-carboxyheptadecanoylamino)butyrylamino]ethoxy}ethoxy)acetylamino]ethoxy}ethoxy)acetyl]-[Glu14,His17,Lys21,Ser28,Ser29,His35]-pramlintide] (H-KCNTATCATQRLAEFLHHSSK([AEEA-AEEA-γGlu-C20 diacid])NFGPILSSTNVGSHTY-NH2; disulfide 2-7) | > 200 µM | > 200 µM | > 200 µM | > 200 µM | 51 µM (≈ 243 µg/mL) | 19 µM (≈ 90.5 µg/mL) |  |  |  | 1 µM (≈ 4.76 µg/mL) |  | 1 µM (≈ 4.76 µg/mL) | 

More lines, now with the values ahead:

Row | solubility [1] | solubility [2] | solubility [3] | solubility [4] | solubility [5] | solubility [6] | solubility [7] | solubility (pH 7, pH 7.0, Table 8, read-out: Solubility pH 7.0) | solubility (pH 7, pH 7.0, Table 9, read-out: Solubility pH 7.0) | solubility [8] | solubility (pH 7.5, pH 7.5, Table 9, read-out: Solubility pH 7.5) | solubility [9] | solubility [10] | Compound
3 | > 200 µM | > 200 µM | > 200 µM | > 200 µM | > 200 µM | > 200 µM | > 200 µM |  |  | > 200 µM |  | > 200 µM | > 200 µM | CC[C@H](C)[C@H](NC(=O)[C@@H]1CCCN1C(=O)CNC(=O)[C@H](Cc1ccccc1)NC(=O)[C@H](CC(N)=O)NC(=O)[C@H](C)NC(=O)[C@H](CO)NC(=O)[C@H](CO)NC(=O)[C@H](Cc1c[nH]cn1)NC(=O)[C@@H](NC(=O)[C@H](CC(C)C)NC(=O)[C@H](Cc1ccccc1)NC(=O)[C@H](CCC(=O)O)NC(=O)[C@H](C)NC(=O)[C@H](CC(C)C)NC(=O)[C@H](CCCNC(=N)N)NC(=O)[C@H](CCC(N)=O)NC(=O)[C@@H](NC(=O)[C@H](C)NC(=O)[C@@H]1CSSC[C@H](NC(=O)[C@H](CCCCN)NC(=O)COCCOCCNC(=O)COCCOCCNC(=O)CC[C@H](NC(=O)CCCCCCCCCCCCCCCCCCC(=O)O)C(=O)O)C(=O)N[C@@H](CC(N)=O)C(=O)N[C@@H]([C@@H](C)O)C(=O)N[C@@H](C)C(=O)N[C@@H]([C@@H](C)O)C(=O)N1)[C@@H](C)O)C(C)C)C(=O)N[C@@H](CC(C)C)C(=O)N1CCC[C@H]1C(=O)N1CCC[C@H]1C(=O)N[C@H](C(=O)N[C@@H](CC(N)=O)C(=O)N[C@H](C(=O)NCC(=O)N[C@@H](CO)C(=O)N[C@@H](Cc1c[nH]cn1)C(=O)N[C@H](C(=O)N1CCC[C@H]1C(N)=O)[C@@H](C)O)C(C)C)[C@@H](C)O [Example 178, N-alpha-[2-(2-{2-[2-(2-{2-[(S)-4-Carboxy-4-(19-carboxyheptadecanoylamino)butyrylamino]ethoxy}ethoxy)acetylamino]ethoxy}ethoxy)acetyl]-[Glu14,Ala21,His35,Pro37]-pramlintide] ({C20 diacid-γGlu-AEEA-AEEA}-KCNTATCATQRLAEFLVHSSANFGPILPPTNVGSHTP-NH2; disulfide 2-7)
4 | > 200 µM | > 200 µM | > 200 µM | > 200 µM | 47 µM (≈ 224 µg/mL) | 2 µM (≈ 9.55 µg/mL) |  |  |  | 1 µM (≈ 4.77 µg/mL) |  | 1 µM (≈ 4.77 µg/mL) |  | CC[C@H](C)[C@H](NC(=O)[C@@H]1CCCN1C(=O)CNC(=O)[C@H](Cc1ccccc1)NC(=O)[C@H](CC(N)=O)NC(=O)[C@H](CCCCNC(=O)COCCOCCNC(=O)COCCOCCNC(=O)CC[C@H](NC(=O)CCCCCCCCCCCCCCCCCCC(=O)O)C(=O)O)NC(=O)[C@H](CO)NC(=O)[C@H](CO)NC(=O)[C@H](Cc1c[nH]cn1)NC(=O)[C@H](Cc1c[nH]cn1)NC(=O)[C@H](CC(C)C)NC(=O)[C@H](Cc1ccccc1)NC(=O)[C@H](CCC(=O)O)NC(=O)[C@H](C)NC(=O)[C@H](CC(C)C)NC(=O)[C@H](CCCNC(=N)N)NC(=O)[C@H](CCC(N)=O)NC(=O)[C@@H](NC(=O)[C@H](C)NC(=O)[C@@H]1CSSC[C@H](NC(=O)[C@@H](N)CCCCN)C(=O)N[C@@H](CC(N)=O)C(=O)N[C@@H]([C@@H](C)O)C(=O)N[C@@H](C)C(=O)N[C@@H]([C@@H](C)O)C(=O)N1)[C@@H](C)O)C(=O)N[C@@H](CC(C)C)C(=O)N[C@@H](CO)C(=O)N1CCC[C@H]1C(=O)N[C@H](C(=O)N[C@@H](CC(N)=O)C(=O)N[C@H](C(=O)NCC(=O)N[C@@H](CO)C(=O)N[C@@H](Cc1c[nH]cn1)C(=O)N[C@H](C(=O)N[C@@H](Cc1ccc(O)cc1)C(N)=O)[C@@H](C)O)C(C)C)[C@@H](C)O [Example 144, N-epsilon21-[2-(2-{2-[2-(2-{2-[(S)-4-Carboxy-4-(19-carboxyheptadecanoylamino)butyrylamino]ethoxy}ethoxy)acetylamino]ethoxy}ethoxy)acetyl]-[Glu14,His17,Lys21,Ser28,His35]-pramlintide] (H-KCNTATCATQRLAEFLHHSSK([AEEA-AEEA-γGlu-C20 diacid])NFGPILSPTNVGSHTY-NH2; disulfide 2-7)
5 | > 200 µM | > 200 µM | > 200 µM | > 200 µM | > 200 µM | 198 µM (≈ 940 µg/mL) | 142 µM (≈ 674 µg/mL) |  |  | 142 µM (≈ 674 µg/mL) |  | 169 µM (≈ 802 µg/mL) | > 200 µM | CC[C@H](C)[C@H](NC(=O)[C@@H]1CCCN1C(=O)CNC(=O)[C@H](Cc1ccccc1)NC(=O)[C@H](CC(N)=O)NC(=O)[C@H](CCCCNC(=O)COCCOCCNC(=O)COCCOCCNC(=O)CC[C@H](NC(=O)CCCCCCCCCCCCCCCCCCC(=O)O)C(=O)O)NC(=O)[C@H](CO)NC(=O)[C@H](CO)NC(=O)[C@H](Cc1c[nH]cn1)NC(=O)[C@@H](NC(=O)[C@H](CC(C)C)NC(=O)[C@H](Cc1ccccc1)NC(=O)[C@H](CCC(=O)O)NC(=O)[C@H](C)NC(=O)[C@H](CC(C)C)NC(=O)[C@H](CCCNC(=N)N)NC(=O)[C@H](CCC(N)=O)NC(=O)[C@@H](NC(=O)[C@H](C)NC(=O)[C@@H]1CSSC[C@H](NC(=O)[C@@H](N)CCCCN)C(=O)N[C@@H](CC(N)=O)C(=O)N[C@@H]([C@@H](C)O)C(=O)N[C@@H](C)C(=O)N[C@@H]([C@@H](C)O)C(=O)N1)[C@@H](C)O)C(C)C)C(=O)N[C@@H](CC(C)C)C(=O)N1CCC[C@H]1C(=O)N1CCC[C@H]1C(=O)N[C@H](C(=O)N[C@@H](CC(N)=O)C(=O)N[C@H](C(=O)NCC(=O)N[C@@H](CO)C(=O)N[C@@H](Cc1c[nH]cn1)C(=O)N[C@H](C(=O)N[C@@H](Cc1ccc(O)cc1)C(N)=O)[C@@H](C)O)C(C)C)[C@@H](C)O [Example 132, N-epsilon21-[2-(2-{2-[2-(2-{2-[(S)-4-Carboxy-4-(19-carboxyheptadecanoylamino)butyrylamino]ethoxy}ethoxy)acetylamino]ethoxy}ethoxy)acetyl]-[Glu14,Lys21,His35]-pramlintide] (H-KCNTATCATQRLAEFLVHSSK([AEEA-AEEA-γGlu-C20 diacid])NFGPILPPTNVGSHTY-NH2; disulfide 2-7)
